Laboratory results published in patent publication US20240246918A1, “COMPOUNDS AND COMPOSITIONS AS EIF4E INHIBITORS AND THE USES THEREOF” (Ribometrix, Inc., priority 2022, published 2024).

Assays:
human eIF4E protein = molecular target: T1, human eIF4E protein (Homo sapiens, UniProt P06730); experiment: Biochemical competitive binding assay (TR-FRET competition, EDA-m7GDP-ATTO-647N probe); settings: read-out: hEIF4E TR-FRET IC50
T1 construct: purchased Novus NBP-45314
How it was run: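 IC50 values come from 4-parameter fits of the normalized 665/620 nm TR-FRET ratio. Compound was first incubated 15 min with 4 nM recombinant His-eIF4E bound to 2.5 nM Eu-anti-His antibody, then 15 min with 5 nM m7GDP-ATTO-647N tracer, in pH 7.5 HEPES buffer with 100 mM KCl, Tween-20 and BSA.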

[1] = system: cap-dependent translation in Flp-In-293 reporter cells; experiment: Cellular cap-dependent translation inhibition assay (dual luciferase assay, DLA; Fluc/Rluc ratio, 24 hours); assay type: cell-based; settings: Homo sapiens, Flp-In-293, 24 h, dual luciferase assay, Flp-In-293 reporter cells, 24 hours, Fluc/Rluc ratio; read-out: DLA 205 IC50
[2] = system: COLO 205 colorectal tumor cells; experiment: Tumor cell viability inhibition assay (CellTiter-Glo 2.0, 72 hours); assay type: cell-based; settings: Homo sapiens, COLO 205, 72 h, COLO 205 cell viability
How it was run: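 IC50 derived by 4-parameter fitting after normalizing luminescence to DMSO and max-inhibition wells. Compounds tested as 11 concentrations in 4-fold steps on COLO 205 cells seeded at 1500 per well in RPMI-1640/10% FBS; ATP content measured with CellTiter-Glo 2.0 after 72 h.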

T1 sequence (P06730 whole entry): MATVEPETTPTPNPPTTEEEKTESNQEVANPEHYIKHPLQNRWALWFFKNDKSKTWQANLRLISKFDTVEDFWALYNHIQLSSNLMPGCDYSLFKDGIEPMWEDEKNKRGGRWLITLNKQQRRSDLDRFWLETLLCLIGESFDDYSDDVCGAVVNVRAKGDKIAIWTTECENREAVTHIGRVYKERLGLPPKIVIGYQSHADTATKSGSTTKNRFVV

| Structure (SMILES) | IC50 (human eIF4E protein) | IC50 [1] | IC50 [2] |
| --- | --- | --- | --- |
| Cc1cc(-c2cc(Cl)ccc2OCCn2c(C)nc3c(c2=O)CC(N(C)CC(F)F)CC3)c2scc(C(=O)NS(C)(=O)=O)c2n1 (stereo not drawn) [Compound 65] | < 0.1 µM | < 1 µM | < 5 µM |
| Cc1cc(-c2cc(Cl)ccc2OCCn2c(C)nc3c(c2=O)CC(N(C)C2CNC2)CC3)c2scc(C(=O)O)c2n1 (stereo not drawn) [Compound 66, 7-[2-[2-[6-[azetidin-3-yl(methyl)amino]-2-methyl-4-oxidanylidene-5,6,7,8-tetrahydroquinazolin-3-yl]ethoxy]-5-chloranyl-phenyl]-5-methyl-thieno[3,2-b]pyridine-3-carboxylic acid; 2,2,2-tris(fluorenyl)acetic acid] | < 0.1 µM | > 5 µM | > 20 µM |
| Cc1cc(-c2cc(Cl)ccc2OCCn2c(C)nc3c(c2=O)CC(N(C)Cc2ccncc2)CC3)c2scc(C(=O)NS(C)(=O)=O)c2n1 (stereo not drawn) [Compound 68] | < 0.1 µM | < 1 µM | < 5 µM |
| Cc1cc(-c2cc(Cl)ccc2OCCn2c(C)nc3c(c2=O)CC(N(C)C2CCCCC2)CC3)c2scc(C(=O)O)c2n1 (stereo not drawn) [Compound 69] | < 0.1 µM | < 1 µM | < 5 µM |
| Cc1cc(-c2cc(Cl)ccc2OCCn2c(C)nc3c(c2=O)CC(N(C)C(=O)C2CCN(CC(F)(F)F)CC2)CC3)c2scc(C(=O)O)c2n1 (stereo not drawn) [Compound 71] | < 0.1 µM | > 5 µM | > 20 µM |
| Cc1cc(-c2cc(Cl)ccc2OCCn2c(C)nc3c(c2=O)CC(N(C)C(=O)C2CN(CC(F)(F)F)C2)CC3)c2scc(C(=O)O)c2n1 (stereo not drawn) [Compound 72] | < 0.1 µM | > 5 µM | > 20 µM |
| Cc1cc(-c2cc(Cl)ccc2OCCn2c(C)nc3c(c2=O)CC(N(C)C(=O)C2CN(C)C2)CC3)c2scc(C(=O)O)c2n1 (stereo not drawn) [Compound 73] | < 0.1 µM | > 5 µM | > 20 µM |
| Cc1cc(-c2cc(Cl)ccc2OCCn2c(C)nc3c(c2=O)CC(N(C)C(=O)C2CCN(C)CC2)CC3)c2scc(C(=O)O)c2n1 (stereo not drawn) [Compound 74] | < 0.1 µM | > 5 µM | > 20 µM |
| Cc1cc(-c2cc(Cl)ccc2OCCn2c(C)nc3c(c2=O)CC(N(C)Cc2ccncc2)CC3)c2sccc2n1 (stereo not drawn) [Compound 75] | 0.5 to 5 µM | > 5 µM | 5 to 20 µM |
| Cc1cc(-c2cc(Cl)ccc2OCCn2c(C)nc3c(c2=O)CC(N(C2CC2)C2CC(F)(F)C2)CC3)c2scc(C(=O)O)c2n1 (stereo not drawn) [Compound 76] | < 0.1 µM | < 1 µM | < 5 µM |
| Cc1cc(-c2cc(Cl)ccc2OCCn2c(C)nc3c(c2=O)CC(N(C)C2CCOCC2)CC3)c2scc(C(=O)O)c2n1 (stereo not drawn) [Compound 77] | < 0.1 µM | < 1 µM | 5 to 20 µM |
| Cc1cc(-c2cc(Cl)ccc2OCCn2c(C)nc3c(c2=O)CC(N2CC4COCC4C2)CC3)c2sccc2n1 (stereo not drawn) [Compound 78] | 0.1 to 0.5 µM | 1 to 5 µM | > 20 µM |
| COC1CCN(C2CCc3nc(C)n(CCOc4ccc(Cl)cc4-c4cc(C)nc5c(C(=O)NS(C)(=O)=O)csc45)c(=O)c3C2)CC1 (stereo not drawn) [Compound 79] | < 0.1 µM | < 1 µM | < 5 µM |
| Cc1cc(-c2cc(Cl)ccc2OCCn2c(C)nc3c(c2=O)CC(N(C)C2CCCC2)CC3)c2scc(C(=O)O)c2n1 (stereo not drawn) [Compound 80] | < 0.1 µM | < 1 µM | < 5 µM |
| Cc1cc(-c2cc(Cl)ccc2OCCn2c(C)nc3c(c2=O)CC(N2CCCC(F)(F)C2)CC3)c2scc(C(=O)NS(C)(=O)=O)c2n1 (stereo not drawn) [Compound 81] | < 0.1 µM | < 1 µM | < 5 µM |
| Cc1cc(-c2cc(Cl)ccc2OCCn2c(C)nc3c(c2=O)CC(N(C)C(=O)C2CCN(CC(F)(F)F)CC2)CC3)c2scc(C(=O)NS(C)(=O)=O)c2n1 (stereo not drawn) [Compound 82] | < 0.1 µM | 1 to 5 µM | > 20 µM |
| Cc1cc(-c2cc(Cl)ccc2OCCn2c(C)nc3c(c2=O)CC(N(CC(F)(F)F)C2CCC2)CC3)c2scc(C(=O)O)c2n1 (stereo not drawn) [Compound 83] | < 0.1 µM | 1 to 5 µM | 5 to 20 µM |
| Cc1cc(-c2cc(Cl)ccc2OCCn2c(C)nc3c(c2=O)CC(N(C)C(=O)C2CCN(C)CC2)CC3)c2scc(C(=O)NS(C)(=O)=O)c2n1 (stereo not drawn) [Compound 84] | < 0.1 µM | > 5 µM | > 20 µM |
| Cc1nc2c(c(=O)n1CC#Cc1ccc(Cl)cc1-c1ccnc3c(C(=O)O)csc13)CC(N1CC(F)(F)C1)CC2 (stereo not drawn) [Compound 85] | 0.1 to 0.5 µM | 1 to 5 µM | < 5 µM |

| Structure (SMILES) | IC50 (human eIF4E protein) | IC50 [1] | IC50 [2] |
| --- | --- | --- | --- |
| Cc1nc2c(c(=O)n1CC#Cc1ccc(Cl)cc1-c1ccnc3c(C(=O)O)csc13)CC(N(C)C1CC(F)(F)C1)CC2 (stereo not drawn) [Compound 86] | < 0.1 µM | < 1 µM | < 5 µM |
| Cc1cc(-c2cc(Cl)ccc2OCCn2c(C)nc3c(c2=O)CC(N(CC(F)(F)F)C2CCC2)CC3)c2scc(C(=O)NS(C)(=O)=O)c2n1 (stereo not drawn) [Compound 87] | < 0.1 µM | < 1 µM | < 5 µM |
| Cc1cc(-c2cc(Cl)ccc2OCCn2c(C)nc3c(c2=O)CC(N2CCN(C)C(=O)C2)CC3)c2scc(C(=O)NS(C)(=O)=O)c2n1 (stereo not drawn) [Compound 88] | < 0.1 µM | > 5 µM | > 20 µM |
| Cc1cc(-c2cc(Cl)ccc2OCCn2c(C)nc3c(c2=O)CC(N2CC(C(F)(F)F)C2)CC3)c2scc(C(=O)O)c2n1 (stereo not drawn) [Compound 90] | < 0.1 µM | < 1 µM | < 5 µM |
| Cc1cc(-c2cc(Cl)ccc2OCCn2c(C)nc3c(c2=O)CC(N(C)C2CCC2)CC3)c2scc(C(=O)O)c2n1 (stereo not drawn) [Compound 91] | < 0.1 µM | < 1 µM | < 5 µM |
| Cc1cc(-c2cc(Cl)ccc2OCCn2c(C)nc3c(c2=O)CC(OC2CCN(C)CC2)CC3)c2scc(C(=O)O)c2n1 (stereo not drawn) [Compound 92] | 0.1 to 0.5 µM | > 5 µM | > 20 µM |
| Cc1cc(-c2cc(Cl)ccc2OCCn2c(C)nc3c(c2=O)CC(N2CCN(C)C(=O)C2)CC3)c2scc(C(=O)O)c2n1 (stereo not drawn) [Compound 95] | < 0.1 µM | > 5 µM | > 20 µM |
| Cc1cc(-c2cc(Cl)ccc2OCCn2c(C)nc3c(c2=O)CC(N(C)CC2CC(F)(F)C2)CC3)c2scc(C(=O)O)c2n1 (stereo not drawn) [Compound 96] | < 0.1 µM | < 1 µM | < 5 µM |
| Cc1cc(-c2cc(Cl)ccc2OCCn2c(C)nc3c(c2=O)CC(N(C2CCC2)C2CC2)CC3)c2scc(C(=O)O)c2n1 (stereo not drawn) [Compound 97] | < 0.1 µM | < 1 µM | < 5 µM |
| Cc1cc(-c2cc(Cl)ccc2OCCn2c(C)nc3c(c2=O)CC(N(C2CCC2)C2CC(F)(F)C2)CC3)c2scc(C(=O)NS(C)(=O)=O)c2n1 (stereo not drawn) [Compound 98] | < 0.1 µM | < 1 µM | < 5 µM |
| COc1cc(CN(C)C2CCc3nc(C)n(CCOc4ccc(Cl)cc4-c4cc(C)nc5c(C(=O)O)csc45)c(=O)c3C2)ccn1 (stereo not drawn) [Compound 248] | < 0.1 µM | < 1 µM | < 5 µM |
| Cc1cc(-c2cc(Cl)ccc2OCCn2c(C)nc3c(c2=O)CC(N(C)C2CC24CCC4)CC3)c2scc(C(=O)O)c2n1 (stereo not drawn) [Compound 262] | < 0.1 µM | < 1 µM | < 5 µM |
| Cc1cc(-c2cc(Cl)ccc2OCCn2c(C)nc3c(c2=O)CC(N(C)C2(C(F)(F)F)CC2)CC3)c2scc(C(=O)O)c2n1 (stereo not drawn) [Compound 265] | 0.1 to 0.5 µM | 1 to 5 µM | > 20 µM |
| Cc1cc(-c2cc(Cl)ccc2OCCn2c(C)nc3c(c2=O)CC2(CC3)CCN(C3CC3)CC2)c2scc(C(=O)O)c2n1 [Compound 267, 7-(5-chloro-2-(2-(1-cyclopropyl-2′-methyl-4′-oxo-7′,8′-dihydro-4′H-spiro[piperidine-4,6′-quinazolin]-3′(5′H)-yl)ethoxy)phenyl)-5-methylthieno[3,2-b]pyridine-3-carboxylic acid] | < 0.1 µM | < 1 µM | 5 to 20 µM |
| Cc1cc(-c2cc(Cl)ccc2OCCn2c(C)nc3c(c2=O)CC2(CC3)CCN(C)CC2)c2scc(C(=O)O)c2n1 [Compound 268, 7-(5-chloro-2-(2-(1,2′-dimethyl-4′-oxo-7′,8′-dihydro-4′H-spiro[piperidine-4,6′-quinazolin]-3′(5′H)-yl)ethoxy)phenyl)-5-methylthieno[3,2-b]pyridine-3-carboxylic acid] | 0.5 to 5 µM | > 5 µM | > 20 µM |
| Cc1cc(-c2cc(Cl)ccc2OCCn2c(C)cc3c(c2=O)CC2(CC3)CN(C)C2)c2scc(C(=O)O)c2n1 [Compound 269] | < 0.1 µM | > 5 µM | > 20 µM |
| Cc1cc(-c2cc(Cl)ccc2OCCn2c(C)nc3c(c2=O)CC2(CC3)CN(C3CC3)C2)c2scc(C(=O)O)c2n1 [Compound 270, 7-(5-chloro-2-(2-(1-cyclopropyl-2′-methyl-4′-oxo-7′,8′-dihydro-4′H-spiro[azetidine-3,6′-quinazolin]-3′(5′H)-yl)ethoxy)phenyl)-5-methylthieno[3,2-b]pyridine-3-carboxylic acid] | < 0.1 µM | < 1 µM | 5 to 20 µM |
| Cc1nc2c(c(=O)n1CC#Cc1ccc(Cl)cc1-c1ccnc3c(C(=O)NS(C)(=O)=O)csc13)CC(N(C)C1CC1)CC2 (stereo not drawn) [Compound 271] | < 0.1 µM | < 1 µM | < 5 µM |
| Cc1cc(-c2cc(Cl)ccc2OCCn2c(C)nc3c(c2=O)CC(N(C)C2CC2)CC3)c2c(n1)c(C(=O)NS(C)(=O)=O)cn2C (stereo not drawn) [Compound 272] | 0.5 to 5 µM | > 5 µM | > 20 µM |
